In patent publication US20200405728A1, “METHODS OF PREVENTING AND TREATING HYPOGLYCEMIA IN TYPE 1 AND TYPE 2 DIABETES PATIENTS” (Ferox Therapeutics LLC, priority 2018, published 2020):
Structures can show the parent of a compound that is named as a salt.

System: 3D INSIGHT Islet Microtissues (primary human pancreatic islet cells)
Test: Glucagon secretion assay (glucagon ELISA) in 3D INSIGHT Islet Microtissues
Format: cell-based
Details: for dose dependency of the increase in glucagon secretion: Example 2, donor AFCS437, 1, 10 and 100 μM; for fold induction at 10 µM / fold induction at 100 µM: Homo sapiens, Pancreatic islet; for fold induction at 10 µM: donor AFBM114, 10 μM; for fold induction at 100 µM: donor AFBM114, 100 μM
From the text: This and the following example make use of 3D INSIGHT® Islet Microtissues (InSphero AG, Schlieren, Switzerland), an in vitro model system for diabetes research produced by optimized dissociation and controlled scaffold-free reaggregation of primary human pancreatic islet cells. This allows precise control over the newly forming islet microtissue size and eliminates contaminating exocrine material while ensuring homogeneous and native-like distribution of endocrine cells within each tissue. The resulting islet tissues display long-term (>28 days) and robust function, enabling high throughput and longitudinal study of pancreatic islet function, regulation, and preservation.
1. The diabetes model system 3D INSIGHT® Islet Microtissues was obtained from a donor. 2. […] 3. Six replicates for each sample were tested. 4. L-arginine was used as a positive control. 5. DMSO was used a solvent for BF2649 hydrochloride and cyproheptadine hydrochloride; ddH2O was used as a solvent for L-arginine. […] 6. Glucagon secretion was quantified with a glucagon ELISA (Mercodia, Uppsala, Sweden). 7. Total ATP content was also measured during the assay.
Referring to FIG. 5, a timeline (500) of the assay is shown. Day 0 (510) involved producing the 3D INSIGHT® Human Islet Microtissues. On Day 5 (520), the samples were moved to a receiving plate. On Day 7 (530), the islet size, viability, and function were verified by quality control. On the final day of the test (540), the glucagon secretion assay was performed with ELISA, and ATP content was measured.
(§1) Before the assay, conditioned media was removed, islet microtissue washed twice with Kreb's Ringer HEPES buffer (KRHB) containing 5.5 mM glucose and were equilibrated in KRHB containing 5-5 mM glucose for 1.5 hours. Equilibration buffer was removed, islet microtissues were washed twice in KRHB with 5-5 mM glucose. Glucagon secretion was performed in KRHB with either 8 mM or 1 mM glucose for 2 hours in the presence of the test compounds. Conditioned KRHB were collected for analysis of glucagon content with an ELISA (Mercodia, Uppsala, Sweden).
A second donor (UNOS ID #AFCS437) was used as well.
as §1, with “5-5” for “5.5”

[1] = Example 1, donor AFBM114, 2 hours
[2] = Example 1, donor AFBM114, 2 hours, compared to vehicle at 1 mM glucose (FIG. 6)

In the case of `Clc1ccc(CCCOCCCN2CCCCC2)cc1` [BF2649 hydrochloride, 1-{3-[3-(4-chlorophenyl)propoxy]propyl}piperidine], the “dose dependence of the increase in glucagon secretion” value (Example 1, donor AFBM114, 1, 10 and 100 μM, 1 mM glucose) is reported as “dose dependent”, the “increase in glucagon secretion, 1 mM glucose versus 8 mM glucose” value (shortened to “increase … 1 mM glucose versus 8 mM glucose”) [1] is reported as “higher at 1 mM glucose than at 8 mM glucose” and the “glucagon secretion (effect)” value [2] is reported as “increased glucagon secretion”. The “glucagon secretion (effect)” value (Example 2, donor AFBM114, 10 μM, 8 mM glucose (FIG. 8)) was “increased glucagon secretion”, the “glucagon secretion (effect)” value (Example 2, donor AFBM114, 100 μM, 8 mM glucose (FIG. 8)) was “increased glucagon secretion” and the “increase in glucagon secretion compared with 5 mM arginine” value (Example 2, donor AFCS437, 100 μM) was “similarly to 5 mM arginine”. The “dose dependency of the increase in glucagon secretion” value was “significant dose dependency”, the fold induction at 10 µM (1 mM glucose (Example 1)) was 1.8 and the fold induction at 10 µM (8 mM glucose (Example 2)) was 1.8. The fold induction at 100 µM (1 mM glucose (Example 1)) was 7.5, the fold induction at 100 µM (8 mM glucose (Example 2)) was 2 and the “increase in glucagon secretion compared with 5 mM arginine” value (previously tested donor (AFBM114), 100 μM) was “similarly to 5 mM arginine”.

In the case of `O=C(O)COCCN1CCN(C(c2ccccc2)c2ccc(Cl)cc2)CC1` (stereo not drawn) [Cetirizine, cetirizine dihydrochloride], the “dose dependency of the increase in glucagon secretion” value is reported as “much less pronounced” and the “glucagon secretion (effect)” value (Example 2, donor AFCS437, all tested concentrations, compared to vehicle at 1 mM glucose (FIG. 10)) is reported as “only slightly increased glucagon secretion”.

For `N=C(N)NCCC[C@H](N)C(=O)O` [L-arginine], the “increase … 1 mM glucose versus 8 mM glucose” value [1] was “higher at 1 mM glucose than at 8 mM glucose” and the “glucagon secretion (effect)” value [2] was “increased glucagon secretion”.

For `CN1CCC(=C2c3ccccc3C=Cc3ccccc32)CC1` [cyproheptadine hydrochloride], the “increase … 1 mM glucose versus 8 mM glucose” value [1] was “higher at 1 mM glucose than at 8 mM glucose” and the “glucagon secretion (effect)” value [2] was “increased glucagon secretion”.
